In US12662494B2, “Optically active bridged piperidine derivative” (Sumitomo Pharma Co., Ltd., priority 2018, dated 2026):
One block for each compound: values may come before it.

Assays:
[1] = test system: MOLM-13 cells; test: Test 2: inhibition of cell proliferation, MOLM-13; type: cell-based; conditions: Homo sapiens, 168 h, 7 days, PrestoBlue cell viability
Description: (§1) Test 2: Test for Evaluating the Inhibition of Cell Proliferation
(§2) RS4; 11 cells were obtained from American Type Culture Collection (ATCC). The cells were cultured at 37° C. in the presence of 5% CO2 in RPMI 1640 medium containing 10% fetal bovine serum and 1% penicillin/streptomycin. MOLM-13 cells were separately obtained from DSMZ (Deutsche Sammlung von Mikroorganismen und Zellkulturen GmbH). The cells were cultured at 37° C. in the presence of 5% CO2 in RPMI 1640 medium containing […] and 1% penicillin/streptomycin.
(§3) The cells were plated to a 96-well plate in 2000 cells/well, each test compound was added thereto to adjust the final concentration of DMSO to 0.1% of DMSO, and the cells were cultured for 7 days. After the cultivation, the cell viability was calculated with PrestoBlue™ Cell Viability Reagent (Invitrogen, A13261). The IC50 value was calculated from a survival curve, that corresponds to the concentration of the test compound at which the cell proliferation inhibition rate is 50%.

[2] = Test 4: pharmacokinetic study, oral, mouse; conditions: for AUC(0-t): male, NOD.CB17-Prkdcscid/J, plasma, po, 100 mg/kg; for compound-exposure in plasma (in words): summary of Test 4 table, oral 100 mg/kg
Description: Test 4: Pharmacokinetic Study
The test compound suspended in 0.5% methylcellulose was orally administered to 7-week-old male NOD. CB17-Prkdcscid/J mouse in a dose of 100 mg/kg. The blood sample was taken from jugular vein without anesthesia over time for 24 hours. The blood sample was centrifuged to obtain plasma. The plasma was pre-treated by methanol extraction method, and then analyzed with an LC-MS/MS to determine the concentration of the test compound. Based on the data from 0 hour after the administration until the time (t) when there was the final detection in the plasma, AUC was calculated by trapezoidal method.

[3] = test system: RS4; 11 cells; test: Test 2: inhibition of cell proliferation, RS4;11; type: cell-based; conditions: for IC50: Homo sapiens, 168 h, RS4;11 cells, 7 days, PrestoBlue cell viability
Description: as §1, §2, §3

[4] = target: T1, Menin-MLL binding (His-Menin1-615 and MLL1-172-FLAG) (Homo sapiens, UniProt O00255); test: Test 1: inhibition of the menin-MLL binding (HTRF); conditions: for IC50: His-Menin1-615 30 nmol/L, MLL1-172-FLAG 50 nmol/L
T1 construct: Menin1-615 wherein 6× His tag and HA tag are inserted in the N-terminus; HA (N); myc (C)
T1 sequence (O00255 1-615 isoform O00255-1): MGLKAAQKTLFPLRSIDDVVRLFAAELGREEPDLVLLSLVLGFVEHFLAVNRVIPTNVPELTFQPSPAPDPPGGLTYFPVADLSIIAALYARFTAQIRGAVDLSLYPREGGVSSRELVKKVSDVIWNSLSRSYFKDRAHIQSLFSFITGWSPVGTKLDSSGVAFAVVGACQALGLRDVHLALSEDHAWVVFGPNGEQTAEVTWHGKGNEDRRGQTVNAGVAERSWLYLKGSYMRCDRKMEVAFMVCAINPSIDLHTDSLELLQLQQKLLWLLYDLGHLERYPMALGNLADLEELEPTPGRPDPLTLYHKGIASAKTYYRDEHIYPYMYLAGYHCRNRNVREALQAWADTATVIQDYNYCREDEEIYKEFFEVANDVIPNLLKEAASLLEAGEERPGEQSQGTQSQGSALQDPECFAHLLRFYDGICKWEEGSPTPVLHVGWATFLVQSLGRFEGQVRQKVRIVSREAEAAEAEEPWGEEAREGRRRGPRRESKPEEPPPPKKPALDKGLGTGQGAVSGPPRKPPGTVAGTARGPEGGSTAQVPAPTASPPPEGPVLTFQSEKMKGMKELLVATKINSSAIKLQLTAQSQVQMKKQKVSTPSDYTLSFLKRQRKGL
Description: Test 1: Test for Evaluating the Inhibition of the Menin-MLL Binding
Menin1-615 wherein 6× His tag and HA tag are inserted in the N-terminus, and myc tag is inserted in the C-terminus (hereinafter, referred to as His-Menin1-615), was diluted with an assay buffer (25 mmol/L HEPES, 150 mmol/L NaCl, 1 mmol/L dithiothreitol, 0.5% (w/v) Tween 80, 0.3% (w/v) BSA, 0.3% (w/v) skim milk) to adjust the final concentration to 30 nmol/L. The test compounds were also diluted with the assay buffer to adjust each concentration of the test compounds to 0.005 to 5 μmol/L. The prepared His-Menin1-615 and test compounds were added to a light-shielding 384-well low-volume plate (Corning, #4514) in 2 μL/well and […], respectively, and the plate was covered with a lid for light-shielding (Corning, #3935), and incubated at room temperature for 3 hours. After the incubation, MLL1-172 wherein FLAG tag is inserted in the C-terminus (MLL1-172-FLAG), was separately diluted with the assay buffer to adjust the final concentration to 50 nmol/L. The prepared MLL1-172-FLAG was added to the above plate in 2 μL/well, and the plate was covered with a lid for light-shielding and incubated at room temperature for an hour.
Then, anti-6HIS-d2 antibody (cisbio, 61HISDLA) and anti-FLAGM2-K antibody (cisbio, 61FG2KLA) were diluted with an antibody dilution buffer (50 mmol/L Tris, 150 mmol/L NaCl, 800 mmol/L KF, pH 7.4) to adjust the final concentration to 1.4 μg/mL to prepare an antibody mixture. The prepared antibody mixture was added to the above plate in 10 μL/well, and the plate was covered with a lid and incubated at 4° C. for 17 to 24 hours. After the incubation, the signal was detected with RUBYstar (BMG LABTECH).

[5] = test system: MEIS1; test: Test 3: inhibition of mRNA transcription, MEIS1 in MV4;11 cells; type: cell-based; conditions: for mRNA at 1 μM (% control) MEIS1: MV4;11 cells, 20 to 24 hours, fitted with GAPDH; for mRNA transcription inhibition activity (in words): summary of Test 3 table, MEIS1 and HOXA9, MV4;11 cells, 1 μM
Description: (§4) Test 3: Test for the Inhibition of mRNA Transcription with Test Compounds
(§5) MV4; 11 cells were obtained from American Type Culture Collection (ATCC). The cells were cultured at 37° C. in the presence of 5% CO2 in RPMI 1640 medium containing 10% fetal bovine serum and 1% penicillin/streptomycin. To the MV4; 11 cells was added each test compound to adjust the final concentration to 1 μmol/L, and the cells were cultured at 37° C. in the presence of 5% CO2 for 20 to 24 hours. After the incubation, the total RNA was extracted from the cells with RNeasy™ Mini Kit (QIAGEN, 74106), and CDNA was synthesized with Superscript™ VILO™ CDNA Synthesis Kit (Invitrogen, #11754250). By using TaqMan™ Gene Expression Master Mix (Applied Biosystems, 4369016) and TaqMan™ probe (Applied Biosystems), the expression level of mRNA was quantified from the obtained cDNA with 7900HT (Applied Biosystems). The mRNA expression level of each obtained gene was fitted with the expression level of mRNA of GAPDH.

[6] = test system: HOXA9; test: Test 3: inhibition of mRNA transcription, HOXA9 in MV4;11 cells; type: cell-based; conditions: 20 to 24 hours, fitted with GAPDH
Description: as §4, §5

[7] = summary of Test 2 table, RS4;11 and MOLM-13

IC50 [1]: 60 nM
AUC(0-t) [2]: 11600 ng·h/mL
compound-exposure in plasma (in words) [2]: good compound-exposure in plasma
IC50 [3]: 70 nM
SMILES: C=C1C[C@@H]2CC[C@H]1[C@@H](C(=O)N1CCC3(CC1)CN(c1c(C#N)cnc4sc(CC(F)(F)F)cc14)C3)N2 [Example 28, 4-{7-[(1S,3S,4R)-5-Methylidene-2-azabicyclo[2.2.2]octane-3-carbonyl]-2,7-diazaspiro[3.5]nonan-2-yl}-2-(2,2,2-trifluoroethyl)thieno[2,3-b]pyridine-5-carbonitrile]

IC50 [1]: 200 nM
IC50 [4]: 9 nM
IC50 [3]: 90 nM
SMILES: C=C1C[C@@H]2CC[C@H]1[C@@H](C(=O)N1CC3(C1)CN(c1c(C#N)cnc4sc(CC(F)(F)F)cc14)C3)N2 [Example 6, 4-{6-[(1S,3S,4R)-5-methylidene-2-azabicyclo[2.2.2]octane-3-carbonyl]-2,6-diazaspiro[3.3]heptan-2-yl}-2-(2,2,2-trifluoroethyl)thieno[2,3-b]pyridine-5-carbonitrile]
mRNA at 1 μM (% control) MEIS1 [5]: 27.4 % control
mRNA at 1 μM (% control) HOXA9 [6]: 45.9 % control

IC50 [1]: 260 nM
IC50 [4]: 7 nM
IC50 [3]: 190 nM
SMILES: N#Cc1cnc2sc(CC(F)(F)F)cc2c1N1CC2(CN(C(=O)[C@H]3N[C@H]4CC[C@@H]3C[C@@H]4CC3CC3)C2)C1 [Example 2, 4-{6-[(1S,3S,4R,6S)-6-(cyclopropylmethyl)-2-azabicyclo[2.2.2]octane-3-carbonyl]-2,6-diazaspiro[3.3]heptan-2-yl}-2-(2,2,2-trifluoroethyl)thieno[2,3-b]pyridine-5-carbonitrile]
mRNA at 1 μM (% control) MEIS1 [5]: 26.6 % control
mRNA at 1 μM (% control) HOXA9 [6]: 48.2 % control

IC50 [1]: 710 nM
IC50 [4]: 48 nM
IC50 [3]: 290 nM
SMILES: N#Cc1cnc2sc(CC(F)(F)F)cc2c1N1CC2(CN(C(=O)[C@H]3N[C@H]4CC[C@@H]3C[C@H]4CC3CC3)C2)C1 [Example 4, 4-{6-[(1S,3S,4R,6R)-6-(cyclopropylmethyl)-2-azabicyclo[2.2.2]octane-3-carbonyl]-2,6-diazaspiro[3.3]heptan-2-yl}-2-(2,2,2-trifluoroethyl)thieno[2,3-b]pyridine-5-carbonitrile]
mRNA at 1 μM (% control) MEIS1 [5]: 47.1 % control
mRNA at 1 μM (% control) HOXA9 [6]: 52.5 % control

Second part, the compound before the results:

SMILES: C=C1C[C@@H]2CC[C@H]1[C@@H](C(=O)N1CC3(C1)CN(c1c(C(F)(F)F)cnc4sc(CC(F)(F)F)cc14)C3)N2 [Example 5, [(1S,3S,4R)-5-methylidene-2-azabicyclo[2.2.2]octan-3-yl]{6-[2-(2,2,2-trifluoroethyl)-5-(trifluoromethyl)thieno[2,3-b]pyridin-4-yl]-2,6-diazaspiro[3.3]heptan-2-yl}methanone]
IC50 [1]: 280 nM
IC50 [4]: 92.7 nM
IC50 [3]: 200 nM
mRNA at 1 μM (% control) MEIS1 [5]: 32.3 % control
mRNA at 1 μM (% control) HOXA9 [6]: 44.3 % control

SMILES: N#Cc1cnc2sc(CC(F)(F)F)cc2c1N1CC2(CN(C(=O)[C@H]3N[C@H]4CC[C@@H]3[C@@H](F)[C@H]4CC3CC3)C2)C1 [Example 14, 4-{6-[(1S,3S,4S,5S,6S)-6-(cyclopropylmethyl)-5-fluoro-2-azabicyclo[2.2.2]octane-3-carbonyl]-2,6-diazaspiro[3.3]heptan-2-yl}-2-(2,2,2-trifluoroethyl)thieno[2,3-b]pyridine-5-carbonitrile]
IC50 [1]: 550 nM
IC50 [4]: 21.7 nM
menin-MLL binding inhibition activity (in words) ([4]; summary of Test 1 table): potent menin-MLL binding inhibition activity
IC50 [3]: 260 nM
cell proliferation inhibition activity, good (in words) [3, 7]: good cell proliferation inhibition activity
mRNA at 1 μM (% control) MEIS1 [5]: 38.5 % control
mRNA transcription inhibition activity (in words) [5]: mRNA transcription inhibition activity
mRNA at 1 μM (% control) HOXA9 [6]: 51.4 % control

SMILES: O=C([C@H]1N[C@H]2CC[C@@H]1[C@@H](F)[C@H]2CC1CC1)N1CC2(C1)CN(c1c(C(F)(F)F)cnc3sc(CC(F)(F)F)cc13)C2 [Example 13, [(1S,3S,4S,5S,6S)-6-(cyclopropylmethyl)-5-fluoro-2-azabicyclo[2.2.2]octan-3-yl]{6-[2-(2,2,2-trifluoroethyl)-5-(trifluoromethyl)thieno[2,3-b]pyridin-4-yl]-2,6-diazaspiro[3.3]heptan-2-yl}methanone]
IC50 [1]: 690 nM
IC50 [4]: 54.2 nM
IC50 [3]: 440 nM
cell proliferation inhibition activity, good (in words) [3, 7]: good cell proliferation inhibition activity
mRNA at 1 μM (% control) MEIS1 [5]: 39.6 % control
mRNA transcription inhibition activity (in words) [5]: mRNA transcription inhibition activity
mRNA at 1 μM (% control) HOXA9 [6]: 45.4 % control

SMILES: O=C([C@H]1N[C@H]2CC[C@@H]1C[C@H]2CC1CC1)N1CC2(C1)CN(c1c(C(F)(F)F)cnc3sc(CC(F)(F)F)cc13)C2 [Example 3, [(1S,3S,4R,6R)-6-(cyclopropylmethyl)-2-azabicyclo[2.2.2]octan-3-yl]{6-[2-(2,2,2-trifluoroethyl)-5-(trifluoromethyl)thieno[2,3-b]pyridin-4-yl]-2,6-diazaspiro[3.3]heptan-2-yl}methanone]
IC50 [1]: 800 nM
IC50 [4]: 88.6 nM
IC50 [3]: 590 nM
mRNA at 1 μM (% control) MEIS1 [5]: 52.6 % control
mRNA at 1 μM (% control) HOXA9 [6]: 54.0 % control

SMILES: C=C1C[C@@H]2CC[C@H]1[C@@H](C(=O)N1CCC3(CC1)CN(c1c(C(F)(F)F)cnc4sc(CC(F)(F)F)cc14)C3)N2 [Example 27, [(1S,3S,4R)-5-Methylidene-2-azabicyclo[2.2.2]octan-3-yl]{2-[2-(2,2,2-trifluoroethyl)-5-(trifluoromethyl)thieno[2,3-b]pyridin-4-yl]-2,7-diazaspiro[3.5]nonan-7-yl}methanone]
IC50 [1]: 70 nM
AUC(0-t) [2]: 17300 ng·h/mL
compound-exposure in plasma (in words) [2]: good compound-exposure in plasma
IC50 [3]: 50 nM
cell proliferation inhibition activity, good (in words) [3, 7]: good cell proliferation inhibition activity
cell proliferation inhibitory activity, potent (in words) [3, 7]: potent cell proliferation inhibitory activity
